Measurements from ChEMBL document CHEMBL3046001, “4-Thiazolidinone and 1-thia-3,4,9-triaza fluorene conjugates: synthesis, characterization and antimicrobial screening” (2013).
Values after ≈ are worked out from the molar mass of the structure shown. Active and inactive are the calls of the source. The calls are words filed in the database; no cut-off is given here.

Assays:
Penicillium chrysogenum [1] = assay: Antifungal activity against Penicillium chrysogenum MTCC 161 assessed as growth inhibition after 24 hr by tube dilution method; format: functional; details: MTCC 161, 24 h
Micrococcus luteus [2] = assay: Antibacterial activity against Micrococcus luteus MTCC 1538 assessed as growth inhibition after 24 hr by tube dilution method; format: functional; details: MTCC 1538, 24 h
Escherichia coli [3] = assay: Antibacterial activity against Escherichia coli MTCC 1573 assessed as growth inhibition after 24 hr by tube dilution method; format: functional; details: MTCC 1573, 24 h
Bacillus pumilus [4] = assay: Antibacterial activity against Bacillus pumilus MTCC 1456 assessed as growth inhibition after 24 hr by tube dilution method; format: functional; details: MTCC 1456, 24 h
Staphylococcus aureus [5] = assay: Antibacterial activity against Staphylococcus aureus MTCC 1430 assessed as growth inhibition after 24 hr by tube dilution method; format: functional; details: MTCC 1430, 24 h
Bacillus subtilis [6] = assay: Antibacterial activity against Bacillus subtilis MTCC 441 assessed as growth inhibition after 24 hr by tube dilution method; format: functional; details: MTCC 441, 24 h
Bacillus subtilis [7] = assay: Antibacterial activity against Bacillus subtilis MTCC 441 assessed as growth inhibition at 750 ug/mL after 48 hr by agar diffusion method; format: functional; details: MTCC 441, 48 h, read-out: DIZ
Bacillus subtilis [8] = assay: Antibacterial activity against Bacillus subtilis MTCC 441 assessed as growth inhibition at 250 ug/mL after 48 hr by agar diffusion method; format: functional; details: MTCC 441, 48 h, read-out: DIZ
Bacillus subtilis [9] = assay: Antibacterial activity against Bacillus subtilis MTCC 441 assessed as growth inhibition at 100 ug/mL after 48 hr by agar diffusion method; format: functional
Penicillium chrysogenum [10] = assay: Antifungal activity against Penicillium chrysogenum MTCC 161 assessed as growth inhibition at 1000 ug/mL after 48 hr by agar diffusion method; format: functional; details: MTCC 161, 48 h, read-out: DIZ
Penicillium chrysogenum [11] = assay: Antifungal activity against Penicillium chrysogenum MTCC 161 assessed as growth inhibition at 500 ug/mL after 48 hr by agar diffusion method; format: functional; details: MTCC 161, 48 h, read-out: DIZ
Penicillium chrysogenum [12] = assay: Antifungal activity against Penicillium chrysogenum MTCC 161 assessed as growth inhibition at 250 ug/mL after 48 hr by agar diffusion method; format: functional; details: MTCC 161, 48 h, read-out: DIZ
Aspergillus niger [13] = assay: Antifungal activity against Aspergillus niger MTCC 2546 assessed as growth inhibition at 500 ug/mL after 48 hr by agar diffusion method; format: functional; details: MTCC 2546, 48 h, read-out: DIZ
Aspergillus niger [14] = assay: Antifungal activity against Aspergillus niger MTCC 2546 assessed as growth inhibition at 250 ug/mL after 48 hr by agar diffusion method; format: functional; details: MTCC 2546, 48 h, read-out: DIZ
Aspergillus niger [15] = assay: Antifungal activity against Aspergillus niger MTCC 2546 assessed as growth inhibition at 100 ug/mL after 48 hr by agar diffusion method; format: functional, organism-based
Pseudomonas fluorescens [16] = assay: Antibacterial activity against Pseudomonas fluorescens MTCC 2421 assessed as growth inhibition at 1250 ug/mL after 48 hr by agar diffusion method; format: functional; details: MTCC 2421, 48 h, read-out: DIZ
Pseudomonas fluorescens [17] = assay: Antibacterial activity against Pseudomonas fluorescens MTCC 2421 assessed as growth inhibition at 750 ug/mL after 48 hr by agar diffusion method; format: functional; details: MTCC 2421, 48 h, read-out: DIZ
Pseudomonas fluorescens [18] = assay: Antibacterial activity against Pseudomonas fluorescens MTCC 2421 assessed as growth inhibition at 500 ug/mL after 48 hr by agar diffusion method; format: functional; details: MTCC 2421, 48 h, read-out: DIZ
Micrococcus luteus [19] = assay: Antibacterial activity against Micrococcus luteus MTCC 1538 assessed as growth inhibition at 250 ug/mL after 48 hr by agar diffusion method; format: functional
Micrococcus luteus [20] = assay: Antibacterial activity against Micrococcus luteus MTCC 1538 assessed as growth inhibition at 100 ug/mL after 48 hr by agar diffusion method; format: functional
Bacillus pumilus [21] = assay: Antibacterial activity against Bacillus pumilus MTCC 1456 assessed as growth inhibition at 1250 ug/mL after 48 hr by agar diffusion method; format: functional; details: MTCC 1456, 48 h, read-out: DIZ
Bacillus pumilus [22] = assay: Antibacterial activity against Bacillus pumilus MTCC 1456 assessed as growth inhibition at 1000 ug/mL after 48 hr by agar diffusion method; format: functional; details: MTCC 1456, 48 h, read-out: DIZ
Bacillus pumilus [23] = assay: Antibacterial activity against Bacillus pumilus MTCC 1456 assessed as growth inhibition at 750 ug/mL after 48 hr by agar diffusion method; format: functional; details: MTCC 1456, 48 h, read-out: DIZ
Bacillus pumilus [24] = assay: Antibacterial activity against Bacillus pumilus MTCC 1456 assessed as growth inhibition at 250 ug/mL after 48 hr by agar diffusion method; format: functional; details: MTCC 1456, 48 h, read-out: DIZ
Bacillus pumilus [25] = assay: Antibacterial activity against Bacillus pumilus MTCC 1456 assessed as growth inhibition at 100 ug/mL after 48 hr by agar diffusion method; format: functional; details: MTCC 1456, 48 h, read-out: DIZ
Staphylococcus aureus [26] = assay: Antibacterial activity against Staphylococcus aureus MTCC 1430 assessed as growth inhibition at 1250 ug/mL after 48 hr by agar diffusion method; format: functional; details: MTCC 1430, 48 h, read-out: DIZ
Staphylococcus aureus [27] = assay: Antibacterial activity against Staphylococcus aureus MTCC 1430 assessed as growth inhibition at 1000 ug/mL after 48 hr by agar diffusion method; format: functional; details: MTCC 1430, 48 h, read-out: DIZ
Staphylococcus aureus [28] = assay: Antibacterial activity against Staphylococcus aureus MTCC 1430 assessed as growth inhibition at 750 ug/mL after 48 hr by agar diffusion method; format: functional; details: MTCC 1430, 48 h, read-out: DIZ
Staphylococcus aureus [29] = assay: Antibacterial activity against Staphylococcus aureus MTCC 1430 assessed as growth inhibition at 500 ug/mL after 48 hr by agar diffusion method; format: functional; details: MTCC 1430, 48 h, read-out: DIZ
Staphylococcus aureus [30] = assay: Antibacterial activity against Staphylococcus aureus MTCC 1430 assessed as growth inhibition at 250 ug/mL after 48 hr by agar diffusion method; format: functional
Pseudomonas aeruginosa [31] = assay: Antibacterial activity against Pseudomonas aeruginosa MTCC 424 assessed as growth inhibition at 250 ug/mL after 48 hr by agar diffusion method; format: functional; details: MTCC 424, 48 h, read-out: DIZ
Micrococcus luteus [32] = assay: Antibacterial activity against Micrococcus luteus MTCC 1538 assessed as growth inhibition at 1000 ug/mL after 48 hr by agar diffusion method; format: functional; details: MTCC 1538, 48 h, read-out: DIZ
Pseudomonas fluorescens [33] = assay: Antibacterial activity against Pseudomonas fluorescens MTCC 2421 assessed as growth inhibition at 100 ug/mL after 48 hr by agar diffusion method; format: functional; details: MTCC 2421, 48 h, read-out: DIZ
Escherichia coli [34] = assay: Antibacterial activity against Escherichia coli MTCC 1573 assessed as growth inhibition at 1250 ug/mL after 48 hr by agar diffusion method; format: functional; details: MTCC 1573, 48 h, read-out: DIZ
Escherichia coli [35] = assay: Antibacterial activity against Escherichia coli MTCC 1573 assessed as growth inhibition at 1000 ug/mL after 48 hr by agar diffusion method; format: functional; details: MTCC 1573, 48 h, read-out: DIZ
Escherichia coli [36] = assay: Antibacterial activity against Escherichia coli MTCC 1573 assessed as growth inhibition at 750 ug/mL after 48 hr by agar diffusion method; format: functional; details: MTCC 1573, 48 h, read-out: DIZ
Escherichia coli [37] = assay: Antibacterial activity against Escherichia coli MTCC 1573 assessed as growth inhibition at 250 ug/mL after 48 hr by agar diffusion method; format: functional; details: MTCC 1573, 48 h, read-out: DIZ
Pseudomonas aeruginosa [38] = assay: Antibacterial activity against Pseudomonas aeruginosa MTCC 424 assessed as growth inhibition at 1250 ug/mL after 48 hr by agar diffusion method; format: functional; details: MTCC 424, 48 h, read-out: DIZ
Pseudomonas aeruginosa [39] = assay: Antibacterial activity against Pseudomonas aeruginosa MTCC 424 assessed as growth inhibition at 750 ug/mL after 48 hr by agar diffusion method; format: functional; details: MTCC 424, 48 h, read-out: DIZ

MIC (Penicillium chrysogenum [1]) | MIC (Micrococcus luteus [2]) | MIC (Escherichia coli [3]) | MIC (Bacillus pumilus [4]) | MIC (Staphylococcus aureus [5]) | MIC (Bacillus subtilis [6]) | Compound | zone of inhibition at 750 µg/mL (Bacillus subtilis [7]) | zone of inhibition at 250 µg/mL (Bacillus subtilis [8]) | growth inhibition (GI) (Bacillus subtilis [9]) | zone of inhibition at 1000 µg/mL (Penicillium chrysogenum [10]) | zone of inhibition at 500 µg/mL (Penicillium chrysogenum [11]) | zone of inhibition at 250 µg/mL (Penicillium chrysogenum [12]) | zone of inhibition at 500 µg/mL (Aspergillus niger [13]) | zone of inhibition at 250 µg/mL (Aspergillus niger [14]) | growth inhibition (GI) (Aspergillus niger [15]) | zone of inhibition at 1250 µg/mL (Pseudomonas fluorescens [16]) | zone of inhibition at 750 µg/mL (Pseudomonas fluorescens [17]) | zone of inhibition at 500 µg/mL (Pseudomonas fluorescens [18]) | growth inhibition (GI) (Micrococcus luteus [20]) | zone of inhibition at 1250 µg/mL (Bacillus pumilus [21]) | also measured
150 µg/mL (≈ 334 µM) | 150 µg/mL (≈ 334 µM) | 30 µg/mL (≈ 66.8 µM) | 40 µg/mL (≈ 89.1 µM) | 150 µg/mL (≈ 334 µM) | 150 µg/mL (≈ 334 µM) | O=C1CSC(c2cccc3ccccc23)N1c1nnc2c3cc(Cl)ccc3nc-2s1 (stereo not drawn) | 15 mm | 7 mm | inactive | 15 mm | 11 mm | 8 mm | 11 mm | 8 mm | inactive | 24 mm | 15 mm | 12 mm | inactive | 20 mm | growth inhibition (GI) (Micrococcus luteus [19]): inactive; zone of inhibition at 1000 µg/mL (Bacillus pumilus [22]): 17 mm; zone of inhibition at 750 µg/mL (Bacillus pumilus [23]): 15 mm; zone of inhibition at 250 µg/mL (Bacillus pumilus [24]): 10 mm; zone of inhibition at 100 µg/mL (Bacillus pumilus [25]): 8 mm; zone of inhibition at 1250 µg/mL (Staphylococcus aureus [26]): 15 mm; zone of inhibition at 1000 µg/mL (Staphylococcus aureus [27]): 10 mm; zone of inhibition at 750 µg/mL (Staphylococcus aureus [28]): 8 mm; zone of inhibition at 500 µg/mL (Staphylococcus aureus [29]): 6 mm; growth inhibition (GI) (Staphylococcus aureus [30]): inactive; zone of inhibition at 250 µg/mL (Pseudomonas aeruginosa [31]): 10 mm; zone of inhibition at 1000 µg/mL (Micrococcus luteus [32]): 15 mm; zone of inhibition at 100 µg/mL (Pseudomonas fluorescens [33]): 8 mm; zone of inhibition at 1250 µg/mL (Escherichia coli [34]): 20 mm; zone of inhibition at 1000 µg/mL (Escherichia coli [35]): 17 mm; zone of inhibition at 750 µg/mL (Escherichia coli [36]): 15 mm; zone of inhibition at 250 µg/mL (Escherichia coli [37]): 10 mm; zone of inhibition at 1250 µg/mL (Pseudomonas aeruginosa [38]): 18 mm; zone of inhibition at 750 µg/mL (Pseudomonas aeruginosa [39]): 13 mm
200 µg/mL (≈ 500 µM) | 250 µg/mL (≈ 625 µM) | 150 µg/mL (≈ 375 µM) | 50 µg/mL (≈ 125 µM) | 250 µg/mL (≈ 625 µM) | 150 µg/mL (≈ 375 µM) | O=C1CSC(c2ccccn2)N1c1nnc2c3cc(Cl)ccc3nc-2s1 (stereo not drawn) | 14 mm | 7 mm | inactive | 18 mm | 12 mm | 9 mm | 12 mm | 9 mm | inactive | 21 mm | 15 mm | 11 mm | inactive | 23 mm | zone of inhibition at 250 µg/mL (Micrococcus luteus [19]; MTCC 1538, 48 h, read-out: DIZ): 7 mm; zone of inhibition at 1000 µg/mL (Bacillus pumilus [22]): 20 mm; zone of inhibition at 750 µg/mL (Bacillus pumilus [23]): 18 mm; zone of inhibition at 250 µg/mL (Bacillus pumilus [24]): 13 mm; zone of inhibition at 100 µg/mL (Bacillus pumilus [25]): 10 mm; zone of inhibition at 1250 µg/mL (Staphylococcus aureus [26]): 17 mm; zone of inhibition at 1000 µg/mL (Staphylococcus aureus [27]): 13 mm; zone of inhibition at 750 µg/mL (Staphylococcus aureus [28]): 11 mm; zone of inhibition at 500 µg/mL (Staphylococcus aureus [29]): 9 mm; zone of inhibition at 250 µg/mL (Staphylococcus aureus [30]; MTCC 1430, 48 h, read-out: DIZ): 7 mm; zone of inhibition at 250 µg/mL (Pseudomonas aeruginosa [31]): 10 mm; zone of inhibition at 1000 µg/mL (Micrococcus luteus [32]): 15 mm; zone of inhibition at 100 µg/mL (Pseudomonas fluorescens [33]): 7 mm; zone of inhibition at 1250 µg/mL (Escherichia coli [34]): 23 mm; zone of inhibition at 1000 µg/mL (Escherichia coli [35]): 20 mm; zone of inhibition at 750 µg/mL (Escherichia coli [36]): 15 mm; zone of inhibition at 250 µg/mL (Escherichia coli [37]): 11 mm; zone of inhibition at 1250 µg/mL (Pseudomonas aeruginosa [38]): 20 mm; zone of inhibition at 750 µg/mL (Pseudomonas aeruginosa [39]): 15 mm
